Legend:
[1] = test system: db/db mice; assay: Oral glucose tolerance test; type: in vivo; conditions: fasted db/db mice, 2 g/kg glucose orally 30 minutes after the substance
Experimental: Oral Glucose Tolerance Test
Fasted db/db mice 7 to 9 weeks old (Janvier, France) are weighed and blood is taken from the tip of the tail. This blood is used for the first measurement of glucose on the basis of which the animals are randomised and divided into groups. The test substance to be tested may be given either orally or i.p. as a suspension in 0.5% Natrosol. 30 minutes after the administration of the substance the animals are given orally 2 g/kg glucose in a volume of 0.1 ml/100 g body weight dissolved in NaCl solution. Subsequently, the glucose values are determined from the tail blood using a glucometer (Ultra OneTouch, Lifescan) at specific time intervals [30, 60, 120 and 180 minutes after oral administration of the glucose].

[2] = test system: mice; assay: Tolerability after oral administration (animals' behaviour); type: in vivo; conditions: oral administration of 10 mg/kg

CC(=O)c1ccc2c(c1)/C(=C(/NCCC(=O)N1CCN(C)CC1)c1ccccc1)C(=O)N2 [Example 1.009]
activity in the oral glucose tolerance test [1]: significant activity
tolerability: changes in the animals' behaviour [2]: no changes were observed in the animals' behaviour
